Source: US20240390403A1, “COMPOSITION AND METHODS FOR TREATING AN ANEURYSM” (Nectero Medical, Inc., priority 2023, published 2024)

Tested on: porcine abdominal aortas
Test: opening angle experiment on porcine abdominal aortic rings
Settings: for statistical analysis of opening angles (ANOVA): Example 13, 50-fold dilution (0.05 mM; Glutaraldehyde 0.5% in PBS, pH 7.4), n=9 rings
Experimental: In this study, compounds of this disclosure were added to abdominal aortas in an opening angle experiment to determine how they would affect the aorta in vitro. Thus, to understand the ability of the compounds of this disclosure to bind to aortic elastin and determine their ability to affect the aorta and aneurysms.
Twelve porcine abdominal aortas were ordered and received. The infra-renal sections of these aortas were dissected, cleaned, rinsed, and then cut into rings measuring 3 mm in width. […] These rings were mixed up before testing to randomize them based on their location in the artery. They were then stored in 500 ml of saline. Analog solutions were prepared at the same molar concentration, but they were not normalized for gallic acid content as indicated in Table 1. These solutions of analogs were made using a solution containing about 26% iopamidol, a radioopaque contrast agent. […] All solutions were prepared one day prior to their use. […] For each solution, 6 aortic rings were placed in a pre-labeled 50 ml conical tube containing 20 ml of the solution, resulting in a volume to tissue ratio of approximately 3.3 ml of solution per ring. The tubes were then incubated at room temperature for 3 hours, with rotation every 30-40 minutes.
After the treatment, while still in the tube, the solution was decanted, and the rings were rinsed three times in PBS and then suspended in PBS. The rings were placed in a 6-well plate, with 2 rings per well and 3 ml of PBS in each well. Each ring was opened with a single cut using fine scissors and laid back in the well. The rings were allowed 15 minutes to recoil in the PBS at room temperature, with gentle shaking every 5 minutes.
Photographs of the rings were taken, and their opening angles were measured using Image J software. The data were then plotted and statistical analyses were performed for comparison.
All solutions were prepared one day prior to their use.
For this experiment, nine aortic rings were placed in 30 ml of a pre-prepared solution within a 50 ml conical tube. […] The tubes were then incubated at room temperature for 3 hours, with rotations occurring every 30-40 minutes. After the incubation period, while still in the tubes, the solution was poured off, and the rings were rinsed three times with PBS and then left suspended in PBS. The rings were then transferred to a 6-well plate, with 2 rings per well and 3-4 ml of PBS in each well. Each ring was opened with a single cut using fine scissors and laid flat in the well. They were allowed to recoil for 15 minutes in PBS at room temperature, with gentle shaking every 5 minutes. Photographs were taken, and the opening angle was measured using the Image J software.

Compound | statistical analysis of opening angles (ANOVA) | statistical comparison of mean opening angles among analogs (FIG. 3) (Example 12, 2.49 mM, n=6 rings) | variability of opening angles relative to control samples (Example 12, 2.49 mM, n=6 rings) | also measured
O=CCCCC=O [Glutaraldehyde, reference compound] | significantly different from all controls and analogs | – | – | –
O=C(OC[C@H]1O[C@@H](OC(=O)c2cc(O)c(O)c(O)c2)[C@H](OC(=O)c2cc(O)c(O)c(O)c2)[C@@H]1OC(=O)c1cc(O)c(O)c(O)c1)c1cc(O)c(O)c(O)c1 [TG-ribose, polygalloyl ribose] | – | statistically significant lower opening angles | – | –
O=C(OC[C@@H]1O[C@@H](OC(=O)c2cc(O)c(O)c(O)c2)[C@H](OC(=O)c2cc(O)c(O)c(O)c2)[C@@H](OC(=O)c2cc(O)c(O)c(O)c2)[C@H]1OC(=O)c1cc(O)c(O)c(O)c1)c1cc(O)c(O)c(O)c1 [α-PGG, pentagalloyl α-glucose] | – | not statistically different | – | –
O=C(OC[C@H]1O[C@@H](OC(=O)c2cc(O)c(O)c(O)c2)[C@H](OC(=O)c2cc(O)c(O)c(O)c2)[C@@H](OC(=O)c2cc(O)c(O)c(O)c2)[C@@H]1OC(=O)c1cc(O)c(O)c(O)c1)c1cc(O)c(O)c(O)c1 [β-PGG, pentagalloyl β-glucose, reference compound] | significantly different from all controls and analogs | not statistically different | – | –
polygalloyl maltose [OG-maltose] | – | – | substantially reduced | opening angle compared to the PBS subgroup (statistics) (Example 12, 2.49 mM, n=6 rings): statistically significant differences, except for OG-maltose
polygalloyl-sucrose [OG-sucrose] | – | – | substantially reduced | –
